Results: patent US9695155B2, “Herbicidal substituted pyrimidinyloxy benzene compounds” (E. I. DU PONT DE NEMOURS AND COMPANY, priority 2013, dated 2017)

Columns and labels:
[1] = test system: rice; assay: Test B flooded paddy test; type: in vivo, Oryza sativa; conditions: Oryza sativa; Flood, 250 g ai/ha; 0 to 100 scale where 0 is no effect and 100 is complete control; read-out: Plant response rating, Rice
In short: (§1)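 Compound added straight to paddy water, with pots kept flooded 3 cm above soil, on plants grown to the 2-leaf stage. Visual scoring 0-100 (100 = complete control) against untreated controls after 13 to 15 greenhouse days.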

[2] = test system: corn; assay: Test C postemergence; type: in vivo, Zea mays; conditions: Zea mays, post-emergence
In short: (§2)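 Visual ratings on a 0–100 scale (100 = complete control) were made versus untreated controls after 13–15 greenhouse days. Chemicals in a surfactant-containing non-phytotoxic solvent were applied either preemergence to seeds in loam–sand soil or postemergence to 1- to 4-leaf plants 2–18 cm tall.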

[3] = test system: galium; assay: Test C postemergence; type: in vivo, Galium aparine; conditions: Galium, post-emergence
In short: as §2

[4] = test system: galium; assay: Test C preemergence; type: in vivo, Galium aparine; conditions: Galium, pre-emergence
In short: as §2

[5] = test system: corn; assay: Test C preemergence; type: in vivo, Zea mays; conditions: Zea mays, pre-emergence
Source text: Seeds of plant species selected from blackgrass (Alopecurus myosuroides), Italian ryegrass (Lolium multiflorum), wheat, winter (winter wheat, Triticum aestivum), galium (catchweed bedstraw, Galium aparine), corn (Zea mays), large (Lg) crabgrass (Digitaria sanguinalis), giant foxtail (Setaria faberii), johnsongrass (Sorghum halepense), lambsquarters (Chenopodium album), morningglory (Ipomoea coccinea), yellow nutsedge (Cyperus esculentus), pigweed (Amaranthus retroflexus), ragweed (common ragweed, Ambrosia elatior), soybean (Glycine max), barnyardgrass (Echinochloa crus-galli), oilseed rape (Brassica napus), waterhemp (common waterhemp, Amaranthus rudis), kochia (Kochia scoparia), wild oat (Avena fatua), surinam grass (Brachiaria decumbens), foxtail, green (green foxtail, Setaria viridis), goosegrass (Eleusine indica), bromegrass, downy (downy bromegrass, Bromus tectorum), nightshade (eastern black nightshade, Solanum ptycanthum), cocklebur (common cocklebur, Xanthium strumarium), cupgrass, woolly (woolly cupgrass, Eriochloa villosa), bermudagrass (Cynodon dactylon), sunflower, (common oilseed sunflower, Helianthus annuus), Russian thistle (Salsola kali), and velvetleaf (Abutilon theophrasti) were planted into a blend of loam soil and sand and treated preemergence with test chemicals formulated in a non-phytotoxic solvent mixture which included a surfactant.
At the same time, plants selected from these crop and weed species and also barley, winter (winter barley, Hordeum vulgare), windgrass (Apera spica-venti), chickweed (common chickweed, Stellaria media), deadnettle (henbit deadnettle, Lamium amplexicaule), and canarygrass (littleseed canarygrass, Phalaris minor) were planted in pots containing Redi-Earth® planting medium (Scotts Company, 14111 Scottslawn Road, Marysville, Ohio 43041) comprising spaghnum peat moss, vermiculite, wetting agent and starter nutrients and treated with postemergence applications of test chemicals formulated in the same manner. Plants ranged in height from 2 to 18 cm (1- to 4-leaf stage) for postemergence treatments. Treated plants and controls were maintained in a greenhouse for 13 to 15 days, after which time all species were compared to controls and visually evaluated. Plant response ratings, summarized in Table C, are based on a scale of 0 to 100 where 0 is no effect and 100 is complete control. A dash (-) response means no test result.

[6] = test system: corn; assay: Test A postemergence; type: in vivo, Zea mays; conditions: Zea mays, post-emergence, 240 h
In short: (§3)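 Scoring: eye-based comparison with untreated controls, 0 for no effect through 100 for complete control, at about day 10. Treatments: directed soil spray preemergence; foliar spray postemergence on 2–10 cm plants at the one- to two-leaf stage. Medium: loam soil with sand.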

[7] = test system: pigweed; assay: Test C postemergence; type: in vivo, Amaranthus retroflexus; conditions: Amaranthus retroflexus, post-emergence
In short: as §2

[8] = test system: barnyardgrass; assay: Test A postemergence; type: in vivo, Echinochloa crus-galli; conditions: Echinochloa crus-galli, post-emergence, 240 h
In short: as §3

[9] = test system: Heteranthera limosa; assay: Test B flooded paddy test; type: in vivo; conditions: Heteranthera limosa, Flood, 250 g ai/ha; 0 to 100 scale where 0 is no effect and 100 is complete control; read-out: Plant response rating, Ducksalad
In short: as §1

[10] = test system: Italian ryegrass; assay: Test C postemergence; type: in vivo, Lolium multiflorum; conditions: Lolium multiflorum, post-emergence
In short: as §2

[11] = test system: waterhemp; assay: Test C postemergence; type: in vivo, Amaranthus rudis; conditions: Amaranthus tuberculatus, post-emergence
In short: as §2

[12] = test system: barnyardgrass; assay: Test B flooded paddy test; type: in vivo, Echinochloa crus-galli; conditions: Echinochloa crus-galli; Flood, 250 g ai/ha; 0 to 100 scale where 0 is no effect and 100 is complete control; read-out: Plant response rating, Barnyardgrass
In short: as §1

[13] = test system: lambsquarters; assay: Test C postemergence; type: in vivo, Chenopodium album; conditions: Chenopodium album, post-emergence
In short: as §2

N#Cc1cccc(Oc2ncc(Cl)cn2)c1-n1cc(Br)cn1 [Compound 52, 2-(4-bromo-1H-pyrazol-1-yl)-3-[(5-chloro-2-pyrimidinyl)oxy]benzonitrile]
plant injury at 250 g/ha [1]: 20% | plant injury at 125 g/ha ([2]; 125 g ai/ha, postemergence, read-out: Plant response rating (0 to 100), Corn): 10% | plant injury at 250 g/ha ([2]; 250 g ai/ha, postemergence, read-out: Plant response rating (0 to 100), Corn): 10% | Corn plant response rating (crop injury, 0 = no effect, 100 = complete kill) at 31 g/ha ([2]; Postemergence, 31 g ai/ha, scale 0 to 100 (0 no effect, 100 complete control), 13 to 15 days): 5% | Corn plant response rating (crop injury, 0 = no effect, 100 = complete kill) at 62 g/ha ([2]; Postemergence, 62 g ai/ha, scale 0 to 100 (0 no effect, 100 complete control)): 10% | pest or weed control at 125 g/ha ([3]; 125 g ai/ha, postemergence, read-out: Plant response rating (0 to 100), Galium): 85% | pest or weed control at 250 g/ha ([3]; 250 g ai/ha, postemergence, read-out: Plant response rating (0 to 100), Galium): 90% | pest or weed control at 31 g/ha ([3]; Postemergence, 31 g ai/ha, scale 0 to 100 (0 no effect, 100 complete control), 13 to 15 days, read-out: Plant response rating, Galium): 60% | pest or weed control at 62 g/ha ([3]; Postemergence, 62 g ai/ha, scale 0 to 100 (0 no effect, 100 complete control), read-out: Plant response rating, Galium): 60% | pest or weed control at 62 g/ha ([4]; 62 g ai/ha, preemergence, scale 0 (no effect) to 100 (complete control), read-out: Galium plant response rating): 100% | pest or weed control at 125 g/ha ([4]; 125 g ai/ha, preemergence, scale 0 (no effect) to 100 (complete control), read-out: Galium plant response rating): 100% | pest or weed control at 250 g/ha ([4]; 250 g ai/ha, preemergence, scale 0 (no effect) to 100 (complete control), read-out: Galium plant response rating): 100% | pest or weed control at 31 g/ha ([4]; Preemergence, 31 g ai/ha, scale 0 to 100, 0 no effect, 100 complete control, read-out: Plant response rating, Galium): 100% | plant injury at 62 g/ha ([5]; 62 g ai/ha, preemergence, scale 0 (no effect) to 100 (complete control), read-out: Corn plant response rating): 5% | plant injury at 125 g/ha ([5]; 125 g ai/ha, preemergence, scale 0 (no effect) to 100 (complete control), read-out: Corn plant response rating): 60% | plant injury at 250 g/ha ([5]; 250 g ai/ha, preemergence, scale 0 (no effect) to 100 (complete control), read-out: Corn plant response rating): 70% | Corn plant response rating (crop injury, 0 = no effect, 100 = complete kill) at 31 g/ha ([5]; Preemergence, 31 g ai/ha, scale 0 to 100, 0 no effect, 100 complete control): 5% | Corn plant response rating (crop injury, 0 = no effect, 100 = complete kill) at 125 g/ha ([6]; 125 g ai/ha, 0 to 100 scale where 0 is no effect and 100 is complete control): 90% | plant injury at 500 g/ha ([6]; 500 g ai/ha, 0 to 100 scale, 0 no effect, 100 complete control, read-out: Plant response rating Corn): 90% | pest or weed control at 125 g/ha ([7]; 125 g ai/ha, postemergence, read-out: Plant response rating (0 to 100), Pigweed): 80% | pest or weed control at 250 g/ha ([7]; 250 g ai/ha, postemergence, read-out: Plant response rating (0 to 100), Pigweed): 95% | pest or weed control at 31 g/ha ([7]; Postemergence, 31 g ai/ha, scale 0 to 100 (0 no effect, 100 complete control), 13 to 15 days, read-out: Plant response rating, Pigweed): 60% | pest or weed control at 62 g/ha ([7]; Postemergence, 62 g ai/ha, scale 0 to 100 (0 no effect, 100 complete control), read-out: Plant response rating, Pigweed): 60% | pest or weed control at 125 g/ha ([8]; 125 g ai/ha, 0 to 100 scale where 0 is no effect and 100 is complete control, read-out: Plant response rating, Barnyardgrass): 90% | pest or weed control at 500 g/ha ([8]; 500 g ai/ha, 0 to 100 scale, 0 no effect, 100 complete control, read-out: Plant response rating Barnyardgrass): 100% | pest or weed control at 250 g/ha [9]: 70% | pest or weed control at 125 g/ha ([10]; 125 g ai/ha, postemergence, read-out: Plant response rating (0 to 100), Ryegrass, Italian): 10% | pest or weed control at 250 g/ha ([10]; 250 g ai/ha, postemergence, read-out: Plant response rating (0 to 100), Ryegrass, Italian): 10% | pest or weed control at 31 g/ha ([10]; Postemergence, 31 g ai/ha, scale 0 to 100 (0 no effect, 100 complete control), 13 to 15 days, read-out: Plant response rating, Ryegrass, Italian): 0% | pest or weed control at 62 g/ha ([10]; Postemergence, 62 g ai/ha, scale 0 to 100 (0 no effect, 100 complete control), read-out: Plant response rating, Ryegrass, Italian): 5% | pest or weed control at 125 g/ha ([11]; 125 g ai/ha, postemergence, read-out: Plant response rating (0 to 100), Waterhemp): 75% | pest or weed control at 250 g/ha ([11]; 250 g ai/ha, postemergence, read-out: Plant response rating (0 to 100), Waterhemp): 95% | pest or weed control at 31 g/ha ([11]; Postemergence, 31 g ai/ha, scale 0 to 100 (0 no effect, 100 complete control), 13 to 15 days, read-out: Plant response rating, Waterhemp): 70% | pest or weed control at 62 g/ha ([11]; Postemergence, 62 g ai/ha, scale 0 to 100 (0 no effect, 100 complete control), read-out: Plant response rating, Waterhemp): 70% | pest or weed control at 250 g/ha [12]: 30% | pest or weed control at 125 g/ha ([13]; 125 g ai/ha, postemergence, read-out: Plant response rating (0 to 100), Lambsquarters): 90% | pest or weed control at 250 g/ha ([13]; 250 g ai/ha, postemergence, read-out: Plant response rating (0 to 100), Lambsquarters): 100% | pest or weed control at 31 g/ha ([13]; Postemergence, 31 g ai/ha, scale 0 to 100 (0 no effect, 100 complete control), 13 to 15 days, read-out: Plant response rating, Lambsquarters): 85% | pest or weed control at 62 g/ha ([13]; Postemergence, 62 g ai/ha, scale 0 to 100 (0 no effect, 100 complete control), read-out: Plant response rating, Lambsquarters): 90%
